Assay results from PubChem BioAssay AID248 (DTP/NCI, 2004).
Several values for one entry are separate records, joined by “and”; a condition that tells them apart may be missing. Equal values may be shown once. Toxic doses and inconclusive results are not listed.

System: L1210 leukemia ip in BDF1 mice, survival T/C
Test: NCI In Vivo Anticancer Drug Screen. Data for tumor model L1210 Leukemia (intraperitoneal) in B6D2F1 (BDF1) mice
Conditions: endpoint: mean survival time, higher = longer survival
Method in brief: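 In this screen, tumor-bearing mice given compound are compared to those given vehicle, and their survival values are reported as a treated-to-control quotient.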

[1] = dose: 100.0 mg/kg/injection, schedule: Q01DX009 (ip), vehicle: Klucel (hydroxypropylcellulose) (HPC)
[2] = dose: 100.0 mg/kg/injection, schedule: Q04DX003 (ip), vehicle: Klucel (hydroxypropylcellulose) (HPC)
[3] = dose: 200.0 mg/kg/injection, schedule: Q04DX003 (ip), vehicle: Klucel (hydroxypropylcellulose) (HPC)
[4] = dose: 400.0 mg/kg/injection, schedule: Q01DX009 (ip), vehicle: Klucel (hydroxypropylcellulose) (HPC)
[5] = dose: 400.0 mg/kg/injection, schedule: Q04DX003 (ip), vehicle: Klucel (hydroxypropylcellulose) (HPC)
[6] = dose: 100.0 mg/kg/injection, schedule: Q01DX001 (ip), vehicle: Klucel (hydroxypropylcellulose) (HPC)
[7] = dose: 200.0 mg/kg/injection, schedule: Q01DX001 (ip), vehicle: Klucel (hydroxypropylcellulose) (HPC)
[8] = dose: 400.0 mg/kg/injection, schedule: Q01DX001 (ip), vehicle: Klucel (hydroxypropylcellulose) (HPC)

Question: `CCCC(C)(COC(N)=O)COC(=O)NC(C)C` (stereo unspecified) was tested. Which T/C (dose: 25.0 mg/kg/injection, schedule: Q01DX009 (ip), vehicle: Klucel (hydroxypropylcellulose) (HPC)) did it give?
Answer: Its T/C is 102 % of control.

Question: And the T/C (dose: 25.0 mg/kg/injection, schedule: Q04DX003 (ip), vehicle: Klucel (hydroxypropylcellulose) (HPC))?
Answer: The T/C was 101 % of control.

Question: And the T/C (dose: 50.0 mg/kg/injection, schedule: Q01DX009 (ip), vehicle: Klucel (hydroxypropylcellulose) (HPC))?
Answer: The T/C was 97 % of control.

Question: And the T/C (dose: 50.0 mg/kg/injection, schedule: Q04DX003 (ip), vehicle: Klucel (hydroxypropylcellulose) (HPC))?
Answer: Its T/C is 92 % of control.

Question: What about the T/C [1] of the same compound?
Answer: Its T/C is 94 % of control.

Question: What about the T/C [2] of the same compound?
Answer: The T/C was 101 % of control.

Question: What about the T/C (dose: 200.0 mg/kg/injection, schedule: Q01DX009 (ip), vehicle: Klucel (hydroxypropylcellulose) (HPC)) of the same compound?
Answer: Its T/C is 97 % of control.

Question: What about the T/C [3] of the same compound?
Answer: The T/C was 95 % of control.

Question: And the T/C [4]?
Answer: Its T/C is 88 % of control.

Question: What about the T/C [5] of the same compound?
Answer: The T/C was 101 % of control.

Question: For `CC(=O)c1c(C)[nH]c(C(=O)OC(C)(C)C)c1C`, which T/C [6] is on record?
Answer: Its T/C is 95 % of control.

Question: And the T/C [2]?
Answer: The T/C was 102 % of control.

Question: And the T/C [7]?
Answer: The T/C was 97 % of control.

Question: And the T/C [3]?
Answer: The T/C was 96 % of control.

Question: What about the T/C [8] of the same compound?
Answer: The T/C was 95 % of control.

Question: What about the T/C [5] of the same compound?
Answer: The T/C was 96 % of control.

Question: Which T/C [6] does the source give for `Oc1c(Br)cc(Br)cc1/C=N/N=C/c1cc(Br)cc(Br)c1O` here?
Answer: Its T/C is 90 % of control.

Question: And the T/C [1]?
Answer: Its T/C is 98 % of control.

Question: What about the T/C [2] of the same compound?
Answer: Its T/C is 90 % of control.

Question: What about the T/C [7] of the same compound?
Answer: The T/C was 90 % of control.

Question: And the T/C [3]?
Answer: The T/C was 97 % of control.

Question: And the T/C [8]?
Answer: Its T/C is 90 % of control.

Question: What about the T/C [4] of the same compound?
Answer: Its T/C is 88 % of control.

Question: What about the T/C [5] of the same compound?
Answer: The T/C was 94 % of control.

Question: With `C#CCOCCCC(=O)O` as the compound, how does the T/C (dose: 100.0 mg/kg/injection, schedule: Q01DX009 (ip), vehicle: saline) read?
Answer: The T/C was 91 % of control.

Question: What about the T/C (dose: 200.0 mg/kg/injection, schedule: Q01DX009 (ip), vehicle: saline) of the same compound?
Answer: Its T/C is 89 % of control.

Question: `FC(F)(F)c1nccc(=S)[nH]1` was tested. Which T/C (dose: 50.0 mg/kg/injection, schedule: Q01DX Z (ip), vehicle: methylcellulose (MC)) did it give?
Answer: Its T/C is 98 % of control.

Question: What about the T/C (dose: 100.0 mg/kg/injection, schedule: Q01DX Z (ip), vehicle: methylcellulose (MC)) of the same compound?
Answer: Its T/C is 90 % of control.

Question: What does the source list for `NC=O`?
Answer: T/C (dose: 62.5 mg/kg/injection, schedule: Q01DX009 (ip), vehicle: saline): 112 % of control; T/C (dose: 62.5 mg/kg/injection, schedule: Q01DX015 (ip), vehicle: saline): 95 % of control; T/C (dose: 100.0 mg/kg/injection, schedule: Q01DX001 (ip), vehicle: saline): 94 % of control and 109 % of control; T/C (dose: 125.0 mg/kg/injection, schedule: Q01DX009 (ip), vehicle: saline): 107 % of control; T/C (dose: 125.0 mg/kg/injection, schedule: Q01DX015 (ip), vehicle: saline): 101 % of control; T/C (dose: 200.0 mg/kg/injection, schedule: Q01DX001 (ip), vehicle: saline): 101 % of control and 92 % of control; T/C (dose: 250.0 mg/kg/injection, schedule: Q01DX009 (ip), vehicle: saline): 118 % of control; T/C (dose: 250.0 mg/kg/injection, schedule: Q01DX015 (ip), vehicle: saline): 110 % of control; T/C (dose: 400.0 mg/kg/injection, schedule: Q01DX001 (ip), vehicle: saline): 100 % of control and 101 % of control; T/C (dose: 500.0 mg/kg/injection, schedule: Q01DX015 (ip), vehicle: saline): 92 % of control; T/C (dose: 800.0 mg/kg/injection, schedule: Q01DX001 (ip), vehicle: saline): 106 % of control

Question: For `Nc1nc(N)c2nc(CN3CCCc4cc(C(=O)NC(CCC(=O)O)C(=O)O)ccc43)cnc2n1` (stereo unspecified), which T/C (dose: 100.0 mg/kg/injection, schedule: Q04DX003 (ip), vehicle: saline) is on record?
Answer: Its T/C is 207 % of control.

Question: How did the T/C (dose: 5.0 mg/kg/injection, schedule: Q01DX Z (ip), vehicle: other) turn out when `O=S(=O)(N/N=C/c1cc(Cl)ccc1O)c1cc(Cl)c(Cl)cc1Cl` was run?
Answer: The T/C was 107 % of control.

Question: What about the T/C (dose: 10.0 mg/kg/injection, schedule: Q01DX Z (ip), vehicle: other) of the same compound?
Answer: Its T/C is 110 % of control.

Question: What about the T/C (dose: 20.0 mg/kg/injection, schedule: Q01DX Z (ip), vehicle: other) of the same compound?
Answer: Its T/C is 105 % of control.

Question: Which T/C (dose: 12.5 mg/kg/injection, schedule: Q04DX003 (ip), vehicle: saline) does the source give for `CC(=O)CC(=O)NCC(CCN(C)C)(c1cccc2ccccc12)C(C)C` (stereo unspecified) here?
Answer: The T/C was 105 % of control.

Question: What about the T/C (dose: 25.0 mg/kg/injection, schedule: Q04DX003 (ip), vehicle: saline) of the same compound?
Answer: The T/C was 97 % of control.

Question: And the T/C (dose: 50.0 mg/kg/injection, schedule: Q04DX003 (ip), vehicle: saline)?
Answer: The T/C was 99 % of control.
